Data taken from patent US11044909B2, “Composition for destruction of microalgae or sphaerocarpus” (CUREARTH, INC., priority 2015, dated 2021).
Like-named read-outs stand apart in the source and are kept apart here.

What was measured:
Experiment in all cases: Microalgae-destroying effect by IC50 measurement (cell count)
Type in all cases: cell-based
Chattonella Marina = conditions: 24 h, cultured 1 day, read-out: IC50 Chattonella Marina
Description: (§1) The IC50 value was obtained according to Equation 1: […]
(§2) First, the above-listed microalgae were cultured in a culture flask at a temperature of about 20° C. under light conditions, and a medium used was Guillard's f/2 medium which is commonly used in the art (Guillard R R L and Keller M D. Culturing dinoflagellates. In: Spector (Ed.), Dinoflagellates. New York: Academic Press; 1984, 391442).
(§3) After the cultured microalgae were transferred onto a 24-well plate, Chattonella Marina, Heterosigma circularisquama, Cochlodinium Polykrikoides, and Heterosigma akashiwo, which were in an exponential growth phase, were treated with Compounds 1 to 3, 5 to 10, 12, 13, 17 to 43, and 45 to 47 synthesized in Examples 1 to 3, 5 to 10, 12, 13, 17 to 43, and 45 to 47 at concentrations of 0.1 uM, 0.2 uM, 0.5 uM, 1 uM, 2 uM, and 5 uM, and then cultured for 1 day.
(§4) Control groups were not treated with any of the compounds synthesized in the above-identified examples. After incubation, the number of cells of each alga was counted using a Burker-Tukr hemocytometer, and IC50 values were calculated according to Equation 1 using SigmaPlot Version 11.2 software (Standard curve: the four-parameter logistic curve).

[1] = test system: Heterocapsa Circularisquama; conditions: 24 h, cultured 1 day
Description: as §1, §2, §3, §4

Heterosigma Akashiwo = conditions: 24 h, cultured 1 day, read-out: IC50 Heterosigma Akashiwo
Description: as §1, §2, §3, §4

[2] = test system: Cochlodinium Polykrikoides; conditions: Margalefidinium polykrikoides, 24 h, 0.1-5 uM, cultured 1 day, read-out: IC50 Cochlodinium Polykrikoides
Description: (§5) The IC50 value was obtained according to Equation 1:
(§6) The algicidal activity of each compound was calculated using Equation 2: Algicidal activity (%)=(1−Tt/Ct)×100 <Equation 2>
(§7) In Equation 2, T (treatment group) and C (control group) represent algae densities in cell counts when each compound was inoculated and was not inoculated, respectively, and t represents the number of days which had passed after the inoculation.
as §2, §3, §4

Microcystis aeruginosa = conditions: Microcystis aeruginosa, 120 h, read-out: IC50 Microcystis aeruginosa
Description: as §5, §6, §7, §2
Microcystis aeruginosa was treated with Compounds 1 to 3, 5 to 10, 12, 13, 17 to 43, and 45 to 51 synthesized in Examples 1 to 3, 5 to 10, 12, 13, 17 to 43, and 45 to 51 at concentrations of 0.1 uM, 0.2 uM, 0.5 uM, 1 uM, 2 uM, 5 uM, 10 uM, 15 uM, and 20 uM and then cultured for 5 days.
as §4

[3] = Table 1, 3,4-dichlorobenzylamines, 0.1-5 uM
[4] = Table 1, 3,4-dichlorobenzylamines, 0.1-5 uM, read-out: IC50 Heterocapsa Circularisquama
[5] = Table 1, 3,4-dichlorobenzylamines
[6] = Table 1, 3,4-dichlorobenzylamines, 0.1-20 uM, cultured 5 days
[7] = Table 2, 0.1-5 uM, read-out: IC50 Heterocapsa Circulariaquama

Row | Compound | IC50 (Chattonella Marina; [3]) [µM] | IC50 [1, 4] [µM] | IC50 (Heterosigma Akashiwo; [3]) [µM] | IC50 [2, 5] [µM] | IC50 (Microcystis aeruginosa; [6]) [µM] | IC50 (Chattonella Marina; Table 2, 0.1-5 uM) [µM] | IC50 [1, 7] [µM] | IC50 (Heterosigma Akashiwo; Table 2, 0.1-5 uM) [µM] | IC50 ([2]; Table 2) [µM] | IC50 (Microcystis aeruginosa) [µM]
1 | CCN(CC)CCNCc1ccc(Cl)c(Cl)c1 [Compound 1, N′-(3,4-dichloro-benzyl)-N,N-diethyl-ethane-1,2-diamine] | 2.9 | 1.76 | 1.58 | 2.3 | 4.89 |  |  |  |  | 
2 | CN(C)CCNCc1ccc(Cl)c(Cl)c1 [Compound 3, N′-(3,4-Dichloro-benzyl)-N,N-dimethyl-ethane-1,2-diamine] | > 5 | 3.1 | 2.25 | > 5 | 8.41 |  |  |  |  | 
3 | COCCNCc1ccc(Cl)c(Cl)c1 [Compound 5, (3,4-dichloro-benzyl)-(2-methoxy-ethyl)-amine] | > 5 | > 5 | 1.3 | > 5 | 14.2 |  |  |  |  | 
4 | COC(CCCNCc1ccc(Cl)c(Cl)c1)OC [Compound 6, (3,4-Dichloro-benzyl)-(4,4-dimethoxy-butyl)-amine] | > 5 | 4.8 | 1.3 | 4.42 | 8.64 |  |  |  |  | 
5 | CC(C)CCNCc1ccc(Cl)c(Cl)c1 [Compound 7, (3,4-Dichloro-benzyl)-(3-methyl-butyl)-amine] | 2 | 1.5 | 0.28 | 1.53 | 11.6 |  |  |  |  | 
6 | CN(C)CCCNCc1ccc(Cl)c(Cl)c1 [Compound 8, N′-(3,4-Dichloro-benzyl)-N,N-dimethyl-propane-1,3-diamine] | 0.81 | 3.3 | 1.26 | 0.29 | 0.09 |  |  |  |  | 
7 | CCN(CC)CCNC(=O)c1ccc(Cl)c(Cl)c1 [Compound 9, 3,4-Dichloro-N-(2-diethylamino-ethyl)-benzamide] |  |  |  |  |  | > 5 | 1.97 | 1.85 | 4.55 | 0.97
8 | CN(C)CCNC(=O)c1ccc(Cl)c(Cl)c1 [Compound 10, 3,4-Dichloro-N-(2-dimethylamino-ethyl)-benzamide] |  |  |  |  |  | > 5 | > 5 | 1.63 | > 5 | > 5
9 | CN(C)CCCNC(=O)c1ccc(Cl)c(Cl)c1 [Compound 12, 3,4-Dichloro-N-(3-dimethylamino-propyl)-benzamide] |  |  |  |  |  | > 5 | > 5 | 1.55 | > 5 | > 5
10 | CCN(CC)CCCNC(=O)c1ccc(Cl)c(Cl)c1 [Compound 13, 3,4-Dichloro-N-(3-diethylamino-propyl)-benzamide] |  |  |  |  |  | 4.5 | 5 | 2.27 | 2.22 | > 5
11 | CCNCc1ccc(Cl)c(Cl)c1 [Compound 17, (3,4-Dichloro-benzyl)-ethyl-amine] | > 5 | > 5 | 1.18 | > 5 | > 20 |  |  |  |  | 
12 | CCCNCc1ccc(Cl)c(Cl)c1 [Compound 18, (3,4-Dichloro-benzyl)-propyl-amine] | 2.67 | > 5 | 0.73 | 4.38 | 11.8 |  |  |  |  | 
13 | Clc1ccc(CNc2ccccc2)cc1Cl [Compound 19, (3,4-Dichloro-benzyl)-phenyl-amine] | 3.5 | > 5 | 1.27 | 4.14 | 13.8 |  |  |  |  | 
14 | CCCCNCc1ccc(Cl)c(Cl)c1 [Compound 20, Butyl-(3,4-dichloro-benzyl)-amine] | 3.16 | 2.86 | 0.44 | 3.52 | > 20 |  |  |  |  | 
15 | Clc1ccc(NCc2ccc(Cl)c(Cl)c2)cc1 [Compound 21, (4-Chloro-phenyl)-(3,4-dichloro-benzyl)-amine] | > 5 | 3.3 | 1.28 | 3.6 | 9.66 |  |  |  |  | 
16 | O=C(/C=C/c1ccc(Cl)c(Cl)c1)c1ccccc1 [Compound 22, 3-(3,4-Dichloro-phenyl)-1-phenyl-propenone] |  |  |  |  |  | > 5 | > 5 | 3.67 | 1.66 | > 5
